# Test results taken from PubChem BioAssay AID1963961 (Molecular Pharmacology Branch, DTP, NCI, 2024).
# System: K98450-129-R-PDC multicell spheroids, viability
# Assay: Anticancer human tumor K98450-129-R-PDC patient-derived colon adenocarcinoma cell line growth inhibition [PI3K]
# Conditions: for IC50: curve of first compound; for viability, T/C: stronger effect = lower value
# Summary of the method: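 Targeted small molecules plus PI3K inhibitors, half-log dose series from Cmax (default top 10 microM), were applied to heterotypic spheroids of cancer cells with HUVEC and MSCs. Viability indicated growth inhibition.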
# [1] = second compound 0.00316 µM, first compound 0.00949 µM
# [2] = second compound 0.00316 µM, first compound 0.03 µM
# [3] = second compound 0.00316 µM, first compound 0.0949 µM
# [4] = second compound 0.00316 µM, first compound 0.3 µM
# [5] = second compound 0.00316 µM, first compound 0.949 µM
# [6] = second compound 0.00316 µM, first compound 3 µM
# [7] = second compound 0.01 µM, first compound 0.00949 µM
# [8] = second compound 0.01 µM, first compound 0.03 µM
# [9] = second compound 0.01 µM, first compound 0.0949 µM
# [10] = second compound 0.01 µM, first compound 0.3 µM
# [11] = second compound 0.01 µM, first compound 0.949 µM
# [12] = second compound 0.01 µM, first compound 3 µM
# [13] = second compound 0.0316 µM, first compound 0.00949 µM
# [14] = second compound 0.0316 µM, first compound 0.03 µM
# [15] = second compound 0.0316 µM, first compound 0.0949 µM
# [16] = second compound 0.0316 µM, first compound 0.3 µM
# [17] = second compound 0.0316 µM, first compound 0.949 µM
# [18] = second compound 0.0316 µM, first compound 3 µM
# [19] = second compound 0.1 µM, first compound 0.00949 µM
# [20] = second compound 0.1 µM, first compound 0.03 µM
# [21] = second compound 0.1 µM, first compound 0.0949 µM
# [22] = second compound 0.1 µM, first compound 0.3 µM
# [23] = second compound 0.1 µM, first compound 0.949 µM
# [24] = second compound 0.1 µM, first compound 3 µM
# [25] = second compound 0.316 µM, first compound 0.00949 µM
# [26] = second compound 0.316 µM, first compound 0.03 µM
# [27] = second compound 0.316 µM, first compound 0.0949 µM
# [28] = second compound 0.316 µM, first compound 0.3 µM
# [29] = second compound 0.316 µM, first compound 0.949 µM
# [30] = second compound 0.316 µM, first compound 3 µM
# [31] = second compound 1 µM, first compound 0.00949 µM
# [32] = second compound 1 µM, first compound 0.03 µM
# [33] = second compound 1 µM, first compound 0.0949 µM
# [34] = second compound 1 µM, first compound 0.3 µM
# [35] = second compound 1 µM, first compound 0.949 µM
# [36] = second compound 1 µM, first compound 3 µM
# 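Further: spheroids exposed to agents for seven days before read-out.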
smiles,measurement,setting,value
Cn1ncc(Cl)c1-c1cc(C(=O)NC(CN)Cc2cccc(F)c2)sc1Cl (stereo unspecified) + CC(Nc1ncnc2nc[nH]c12)c1cc2cccc(Cl)c2c(=O)n1-c1ccccc1,IC50,second compound 0.0316 µM,> 10000 nM
same,IC50,second compound 0.1 µM,> 10000 nM
same,IC50,second compound 0.316 µM,> 10000 nM
same,IC50,second compound 1 µM,> 10000 nM
same,IC50,second compound 3.16 µM,9630 nM
same,IC50,second compound 10 µM,8500 nM
same,"viability, T/C","second compound 0.0316 µM, first compound 0.0316 µM",88.4%
same,"viability, T/C","second compound 0.0316 µM, first compound 0.1 µM",105%
same,"viability, T/C","second compound 0.0316 µM, first compound 0.316 µM",102%
same,"viability, T/C","second compound 0.0316 µM, first compound 1 µM",93.8%
same,"viability, T/C","second compound 0.0316 µM, first compound 3.16 µM",98.1%
same,"viability, T/C","second compound 0.0316 µM, first compound 10 µM",56.9%
same,"viability, T/C","second compound 0.1 µM, first compound 0.0316 µM",107%
same,"viability, T/C","second compound 0.1 µM, first compound 0.1 µM",85%
same,"viability, T/C","second compound 0.1 µM, first compound 0.316 µM",96%
same,"viability, T/C","second compound 0.1 µM, first compound 1 µM",92.6%
same,"viability, T/C","second compound 0.1 µM, first compound 3.16 µM",98.1%
same,"viability, T/C","second compound 0.1 µM, first compound 10 µM",59.8%
same,"viability, T/C","second compound 0.316 µM, first compound 0.0316 µM",110%
same,"viability, T/C","second compound 0.316 µM, first compound 0.1 µM",106%
same,"viability, T/C","second compound 0.316 µM, first compound 0.316 µM",92.4%
same,"viability, T/C","second compound 0.316 µM, first compound 1 µM",101%
same,"viability, T/C","second compound 0.316 µM, first compound 3.16 µM",99%
same,"viability, T/C","second compound 0.316 µM, first compound 10 µM",61.5%
same,"viability, T/C","second compound 1 µM, first compound 0.0316 µM",95.7%
same,"viability, T/C","second compound 1 µM, first compound 0.1 µM",110%
same,"viability, T/C","second compound 1 µM, first compound 0.316 µM",101%
same,"viability, T/C","second compound 1 µM, first compound 1 µM",80.8%
same,"viability, T/C","second compound 1 µM, first compound 3.16 µM",96.6%
same,"viability, T/C","second compound 1 µM, first compound 10 µM",61.2%
same,"viability, T/C","second compound 3.16 µM, first compound 0.0316 µM",87.3%
same,"viability, T/C","second compound 3.16 µM, first compound 0.1 µM",94.5%
same,"viability, T/C","second compound 3.16 µM, first compound 0.316 µM",106%
same,"viability, T/C","second compound 3.16 µM, first compound 1 µM",96.9%
same,"viability, T/C","second compound 3.16 µM, first compound 3.16 µM",97%
same,"viability, T/C","second compound 3.16 µM, first compound 10 µM",48.4%
same,"viability, T/C","second compound 10 µM, first compound 0.0316 µM",85.1%
same,"viability, T/C","second compound 10 µM, first compound 0.1 µM",86.1%
same,"viability, T/C","second compound 10 µM, first compound 0.316 µM",87%
same,"viability, T/C","second compound 10 µM, first compound 1 µM",94.9%
same,"viability, T/C","second compound 10 µM, first compound 3.16 µM",89.8%
same,"viability, T/C","second compound 10 µM, first compound 10 µM",43.7%
Cn1cnc2c(F)c(Nc3ccc(Br)cc3Cl)c(C(=O)NOCCO)cc21 + COc1c(OCCCN2CCOCC2)ccc2c3n(c(=NC(=O)c4cnc(N)nc4)nc12)CCN3,IC50,second compound 0.00316 µM,663 nM
same,IC50,second compound 0.01 µM,1000 nM
same,IC50,second compound 0.0316 µM,351 nM
same,IC50,second compound 0.1 µM,303 nM
same,IC50,second compound 0.316 µM,102 nM
same,IC50,second compound 1 µM,< 9.49 nM
same,"viability, T/C",[1],98.5%
same,"viability, T/C",[2],77.5%
same,"viability, T/C",[3],76.3%
same,"viability, T/C",[4],68.8%
same,"viability, T/C",[5],41.5%
same,"viability, T/C",[6],21.3%
same,"viability, T/C",[7],94.7%
same,"viability, T/C",[8],77.9%
same,"viability, T/C",[9],74.6%
same,"viability, T/C",[10],65.5%
same,"viability, T/C",[11],58.9%
same,"viability, T/C",[12],18.2%
same,"viability, T/C",[13],91.6%
same,"viability, T/C",[14],86.1%
same,"viability, T/C",[15],66%
same,"viability, T/C",[16],50.2%
same,"viability, T/C",[17],37.7%
same,"viability, T/C",[18],14.7%
same,"viability, T/C",[19],87.4%
same,"viability, T/C",[20],71.4%
same,"viability, T/C",[21],71.8%
same,"viability, T/C",[22],49.9%
same,"viability, T/C",[23],26.7%
same,"viability, T/C",[24],5.26%
same,"viability, T/C",[25],56.4%
same,"viability, T/C",[26],49.9%
same,"viability, T/C",[27],47.8%
same,"viability, T/C",[28],39.2%
same,"viability, T/C",[29],11.4%
same,"viability, T/C",[30],6.72%
same,"viability, T/C",[31],45.9%
same,"viability, T/C",[32],37.8%
same,"viability, T/C",[33],29.8%
same,"viability, T/C",[34],22.6%
same,"viability, T/C",[35],9.08%
same,"viability, T/C",[36],4.95%
Cn1cnc2c(F)c(Nc3ccc(Br)cc3Cl)c(C(=O)NOCCO)cc21 + CC(Nc1ccc2c(c1)OCCn1cc(N3C(=O)OCC3C(F)F)nc1-2)C(N)=O,IC50,second compound 0.00316 µM,1330 nM
same,IC50,second compound 0.01 µM,1150 nM
same,IC50,second compound 0.0316 µM,1190 nM
same,IC50,second compound 0.1 µM,1240 nM
same,IC50,second compound 0.316 µM,857 nM
same,IC50,second compound 1 µM,605 nM
same,"viability, T/C",[1],105%
same,"viability, T/C",[2],86.9%
same,"viability, T/C",[3],95.5%
same,"viability, T/C",[4],76.1%
same,"viability, T/C",[5],62.1%
same,"viability, T/C",[6],25.7%
same,"viability, T/C",[7],102%
same,"viability, T/C",[8],88.7%
same,"viability, T/C",[9],91%
same,"viability, T/C",[10],75.4%
same,"viability, T/C",[11],56.3%
same,"viability, T/C",[12],21.9%
same,"viability, T/C",[13],99.3%
same,"viability, T/C",[14],93.4%
same,"viability, T/C",[15],83%
same,"viability, T/C",[16],75.3%
same,"viability, T/C",[17],62.1%
same,"viability, T/C",[18],17.7%
same,"viability, T/C",[19],89.5%
same,"viability, T/C",[20],81.8%
same,"viability, T/C",[21],85.6%
same,"viability, T/C",[22],76.5%
same,"viability, T/C",[23],60.5%
same,"viability, T/C",[24],16.7%
same,"viability, T/C",[25],83.7%
same,"viability, T/C",[26],83.5%
same,"viability, T/C",[27],82.5%
same,"viability, T/C",[28],72.2%
same,"viability, T/C",[29],48%
same,"viability, T/C",[30],11.1%
same,"viability, T/C",[31],76.6%
same,"viability, T/C",[32],77.5%
same,"viability, T/C",[33],78.2%
same,"viability, T/C",[34],66.8%
same,"viability, T/C",[35],38.9%
same,"viability, T/C",[36],9.63%
